Source: publication PMC4047118, “BM-1197: A Novel and Specific Bcl-2/Bcl-xL Inhibitor Inducing Complete and Long-Lasting Tumor Regression In Vivo” (PLoS ONE, 2014)
Like-named read-outs stand apart in the source and are kept apart here.

Tests used:
Bcl-xL = Bcl-xL (Homo sapiens, UniProt Q07817); experiment: fluorescence-polarization (FP) binding assay, Bcl-xL; details: means ± SD (n≥3)
Source text: BM-1197 ( Fig 1 ), was synthesized in a similar manner as described for BM-1074 [16]. We evaluated the binding affinities of BM-1197 to Bcl-2, Bcl-xL and Mcl-1 proteins using our optimized fluorescence-polarization (FP) binding assays.
Data are expressed as means ± SD (n≥3).

Mcl-1 = Mcl-1 (Homo sapiens, UniProt Q07820); experiment: fluorescence-polarization (FP) binding assay, Mcl-1
Source text: BM-1197 ( Fig 1 ), was synthesized in a similar manner as described for BM-1074 [16]. We evaluated the binding affinities of BM-1197 to Bcl-2, Bcl-xL and Mcl-1 proteins using our optimized fluorescence-polarization (FP) binding assays. […] Of note, the binding affinities of these compounds to Bcl-2 and Bcl-xL proteins are close to the lower limits of the assay and their precise Ki values could not be determined accurately using our competitive, FP binding assays.

[1] = system: MCL1-wild-type (WT) MEF cells; experiment: cell growth inhibition, WST assay, wild-type MEF; type: cell-based; details: Mus musculus, 72 h, 3 days
Experimental: (§1) All the SCLC cell lines were purchased from American Type Culture Collection (Manassas, VA) and cultured as recommended. All these cell lines were passaged fewer than 6 months after purchase. MCL1 knockout (MCL1^−/−) MEF cells were kindly provided by Dr. David Huang (The Walter and Eliza Hall Institute of Medical Research, Melbourne, Australia). Cell growth inhibition was evaluated by means of a WST-8 assay (Dojindo, Rockville, MD) as described previously. Mitochondrial membrane potential was determined by JC-1 staining using a JC-1 Mitochondrial Membrane Potential Assay kit (Cayman). Apoptosis analysis was performed using an Annexin V/propidium iodide (PI) apoptosis detection kit (Roche Applied Sciences, Indianapolis, IN).
(B) MCL1^−/− cells were treated with 100 nM of BM-1197 for 16 h and stained with Annexin V/PI for flow cytometry. […] They are given in the order upper left, upper right, lower left, lower right.

Bcl-2 = target: T1, Bcl-2 (Mus musculus, UniProt P10417); experiment: cellular thermal shift assay (CETSA), Bcl-2; type: cell-based; details: 1 µM, 1 h, MEF MCL1−/− cells
T1 construct: endogenous in cells; host or cells: MEF MCL1-/- cells
Experimental: Drug-target engagement was assessed using CETSA as described by Molina et al.. Briefly, cells were treated with drugs for 1 h, then harvested, washed with PBS, and resuspended in PBS. The resuspended cells were freeze-thawed 4 times. The soluble fraction (lysate) was separated from cell debris by centrifugation at 20000×g for 20 minutes at 4°C and then analyzed by Western blots.
Drug-treated cells were heated at gradient temperature from 42°C to 62°C for 3 min then freeze-thawed 4 times. The soluble fractions of the lysed cells were analyzed by immunoblotting. (B) MEF MCL1^− ^/− cells were treated with drugs at the indicated doses for 1 h before collected for CETSA.

H1417 = experiment: SCLC cell growth inhibition (WST-8), H1417; type: cell-based; details: Homo sapiens, NCI-H1417; 96-h incubation, means ± SD (n = 3–6)
Experimental: as §1

H1963 = experiment: SCLC cell growth inhibition (WST-8), H1963; type: cell-based; details: Homo sapiens, NCI-H1963; 96-h incubation, means ± SD (n = 3–6)
Experimental: as §1

H211 = experiment: SCLC cell growth inhibition (WST-8), H211; type: cell-based; details: Homo sapiens, NCI-H211; 96-h incubation, means ± SD (n = 3–6)
Experimental: as §1

DMS79 = experiment: SCLC cell growth inhibition (WST-8), DMS79; type: cell-based; details: Homo sapiens, DMS-79; 96-h incubation, means ± SD (n = 3–6)
Experimental: as §1

DMS53 = experiment: SCLC cell growth inhibition (WST-8), DMS53; type: cell-based; details: Homo sapiens, DMS-53; 96-h incubation, means ± SD (n = 3–6)
Experimental: as §1

H196 = experiment: SCLC cell growth inhibition (WST-8), H196; type: cell-based; details: Homo sapiens, NCI-H196; 96-h incubation, means ± SD (n = 3–6)
Experimental: as §1

[2] = system: panel of 12 SCLC cell lines; experiment: growth inhibition in a panel of 12 SCLC cell lines (summary); type: cell-based, human; details: for IC50: Homo sapiens
Experimental: as §1

H146 xenograft tumors = experiment: H146 subcutaneous xenograft model; type: in vivo, SCID mice
Experimental: (§2) Tumor sizes were measured 2–3 times per week. Tumor growth inhibition was calculated by using the formula: 100% (mean volume of controls - mean volume of treated)/mean volume of controls.
(§3) Figure 10 In vivo antitumor activity of BM-1197. […] Data shown are mean ± SEM for 6–8 mice. (E & F) SCID mice bearing H146 or H1963 cells were treated with 10 mg/kg of BM-1197 IV for the indicated times. Tumor lysates were analyzed by immunoblotting.

H1963 xenograft tumors = experiment: H1963 subcutaneous xenograft model; type: in vivo, SCID mice
Experimental: as §2, §3

platelets = experiment: platelet count / on-target platelet toxicity in mice; type: in vivo
Experimental: BM-1197 was administered by IV bolus injected into the tail vein of the mice. Mice were euthanized at different time points with CO2, then ∼0.2 ml of blood was drawn by cardiac puncture using an EDTA treated syringe, transferred to an EDTA treated tube and sent immediately for a Complete Blood Count. The samples were read at the University of Michigan Animal Diagnostic Laboratory on a HEMAVET 950FS Hematology Analyzer.
Figure 11 BM-1197 decreases platelet count in mice. BM-1197 was administered by IV bolus injected into the tail vein. At the indicated time points the mice were euthanized and blood was drawn for complete blood count. Data are mean ± SEM (n = 3).

[3] = IV daily 10 mg/kg, 5 days per week for 2 weeks, 8 mice
[4] = single dose 10 mg/kg IV, as early as 3 h, persisting at least 24 hr

Sequence of Bcl-xL (Q07817 whole entry): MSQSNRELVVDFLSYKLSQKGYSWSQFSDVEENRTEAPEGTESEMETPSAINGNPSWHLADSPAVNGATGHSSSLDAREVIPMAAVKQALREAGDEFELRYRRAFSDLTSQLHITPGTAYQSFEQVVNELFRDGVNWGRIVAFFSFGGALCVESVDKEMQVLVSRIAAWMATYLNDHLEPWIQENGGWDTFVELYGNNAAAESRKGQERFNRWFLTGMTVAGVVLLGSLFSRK
Sequence of Mcl-1 (Q07820 whole entry): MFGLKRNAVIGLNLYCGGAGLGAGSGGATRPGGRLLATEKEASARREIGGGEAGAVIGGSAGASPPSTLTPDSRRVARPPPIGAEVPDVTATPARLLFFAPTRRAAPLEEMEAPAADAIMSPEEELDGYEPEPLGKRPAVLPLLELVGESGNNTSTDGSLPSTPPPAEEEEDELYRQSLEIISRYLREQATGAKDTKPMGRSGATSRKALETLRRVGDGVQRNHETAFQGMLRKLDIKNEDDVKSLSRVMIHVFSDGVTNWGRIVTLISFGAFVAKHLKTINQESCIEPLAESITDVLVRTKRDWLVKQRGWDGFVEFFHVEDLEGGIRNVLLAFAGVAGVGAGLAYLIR
T1 sequence (P10417 whole entry): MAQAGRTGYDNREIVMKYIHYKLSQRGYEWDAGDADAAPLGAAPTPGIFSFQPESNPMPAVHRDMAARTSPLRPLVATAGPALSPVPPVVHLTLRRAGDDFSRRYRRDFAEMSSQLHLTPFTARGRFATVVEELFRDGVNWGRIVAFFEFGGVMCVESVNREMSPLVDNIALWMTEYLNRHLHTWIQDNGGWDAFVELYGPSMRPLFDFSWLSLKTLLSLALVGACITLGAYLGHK

With `Cc1c(S(C)(=O)=O)c(-c2cc(F)cc(N3CCN(c4ccc(NS(=O)(=O)c5ccc(N[C@H](CCN6CCC(O)CC6)CSc6ccccc6)c(S(=O)(=O)C(F)(F)F)c5)cc4)CC3)c2)c(-c2ccc(Cl)cc2)n1C(C)C` [BM-1197] the IC50 (Bcl-xL) was 5.2 ± 0.6 nM, the Ki (Bcl-xL) was less than 1 nM and the “binding to Mcl-1” value (Mcl-1; at 2 µM) was “fails to bind”. For the same compound, the “selectivity over Mcl-1” value (Mcl-1; versus Bcl-2 and Bcl-xL) was > 1,000 fold, the IC50 [1] was greater than 2000 nM and the “thermal stability of Bcl-2 protein” value (Bcl-2) was “enhanced”. The IC50 (H1417) was 3 ± 1 nM, the IC50 (H1963) was 5 ± 2 nM and the IC50 (H211) was 6 ± 5 nM. It also gave an IC50 (DMS79) of 54 ± 30 nM, an IC50 (DMS53) of 538 ± 254 nM and an IC50 (H196) greater than 2000 nM. The “fold more potent than ABT-263” value ([2]; 4 cell lines most sensitive to BM-1197) was 5-26 fold, the IC50 ([2]; 2 of 12 SCLC cell lines, read-out: IC50 values in the 2 cell lines with weak activity) was greater than 2000 nM and the IC50 ([2]; 3 of 12 SCLC cell lines, read-out: IC50 values in the 3 cell lines with moderate activity) was roughly 600 nM. For the same compound, the IC50 ([2]; 7 of 12 SCLC cell lines, read-out: IC50 values in the 7 cell lines with potent activity) was 3 to 82 nM, the “mice tumor free 50 days after the end of the weekly treatment” value (H146 xenograft tumors; 15 mg/kg weekly IV) was 5 of 8 and the “mice with complete tumor regression after eight weekly doses” value (H146 xenograft tumors; 15 mg/kg weekly IV) was 7 of 8. The “mice with complete tumor regression after five weekly doses” value (H146 xenograft tumors; 15 mg/kg weekly IV) was 4 of 8, the “decrease of mean tumor volume after 7 doses” value (H146 xenograft tumors; IV daily 10 mg/kg) was 85% and the “decrease of mean tumor volume after two doses” value (H146 xenograft tumors; IV daily 10 mg/kg) was 40%. The “mice tumor free 60 days after the end of the treatment” value (H146 xenograft tumors; [3]) was 5 mice, the “mice tumor free for at least 32 days after the end of the treatment” value (H146 xenograft tumors; [3]) was 8 mice and the “mice with rapid and complete tumor regression” value (H146 xenograft tumors; [3]) was 8 mice. For the same compound, the “mean tumor volume after two doses” value (H146 xenograft tumors; IV daily 10 mg/kg, from 114 mm^3) was 69 mm^3, the “weight loss compared to control group” value (H146 xenograft tumors; all dose-schedules in H146 model, no other signs of toxicity) was “no statistically significant weight loss” and the “reduction of mean tumor volume on day 7” value (H146 xenograft tumors; single 10 mg/kg dosing, weekly IV schedule) was 32%. For the same compound, the “tumor regression on day 7” value (H146 xenograft tumors; single 15 mg/kg dosing, weekly IV schedule) was 66%, the “apoptosis biomarkers in H146 tumors” value (H146 xenograft tumors; [4]) was “rapid and robust caspase-3 activation and PARP cleavage” and the “decrease of mean tumor volume seven days after initiation of treatment” value (H1963 xenograft tumors; 10 mg/kg daily IV dosing) was greater than 90%. For the same compound, the “mice with tumor regrown 40 days after the last dose” value (H1963 xenograft tumors; 10 mg/kg daily IV dosing) was 1 of 6, the “mice with complete tumor regression” value (H1963 xenograft tumors; 10 mg/kg daily IV dosing (5 days per week), 6 mice) was 6 mice and the “mice tumor free for 61 days after the last dose” value (H1963 xenograft tumors; 10 mg/kg daily IV dosing, 6 mice) was 5 mice. For the same compound, the weight loss (H1963 xenograft tumors; both daily and weekly dose-schedules) was less than 10%, the “mice with palpable tumor on day 59” value (H1963 xenograft tumors; daily dosing at 10 mg/kg) was “one of six mice” and the “apoptosis biomarkers in H1963 tumors” value (H1963 xenograft tumors; [4]) was “rapid and robust caspase-3 activation and PARP cleavage”. For the same compound, the “duration of complete tumor regression in 5 out of 6 mice” value (H1963 xenograft tumors; weekly dosing (15 mg/kg)) was 38 days, the “duration of complete tumor regression in all mice” value (H1963 xenograft tumors; weekly dosing (15 mg/kg)) was 17 days and the “reduction of mean tumor volume after a single dose” value (H1963 xenograft tumors; weekly dosing (15 mg/kg)) was 66%. For the same compound, the “tumor response after two doses” value (H1963 xenograft tumors; weekly dosing (15 mg/kg)) was “complete tumor regression”, the “mice with re-occurring tumor on day 59” value (H1963 xenograft tumors; weekly dosing at 15 mg/kg) was “all mice” and the lowest platelet count (platelets; 15 mg/kg IV bolus, at 24 h) was 96000 µL⁻¹. The bleeding (platelets; repeated daily or weekly intravenous doses in efficacy experiments) was “did not observe any bleeding”.
